What was measured:
Type in all cases: in vivo
[1] = system: barnyardgrass (Echinochloa crus-galli L.): ECHCG; experiment: Test Example 1 pre-emergence herbicidal activity, ECHCG; settings: visually observed 20th to 23rd day after application
Procedure, shortened: (§1)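 Upland soil pot test. Formulated compound (wettable powder or emulsifiable concentrate) in water, 500 L/ha, sprayed one day after sowing before emergence; % control rated by eye on day 20–23.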

[2] = system: rice (Oryza sativa L.), ORYSA; experiment: Test Example 2 post-emergence (foliage treatment) herbicidal activity, ORYSA; settings: 63 g a.i./ha
Procedure, shortened: (§2)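 Leaf stages at treatment differed per species: 1.1-2.1 for ECHCG, 1.0-2.0 for DIGSA, 0.1-1.5 for AMARE and 1.0-2 for ORYSA. Plants grew in pots of upland soil and were sprayed with wettable powder or emulsifiable concentrate in water (500 L/ha) plus spreader at 0.1% (v/v). Visual % control followed on days 20-23.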

[3] = system: barnyardgrass (Echinochiloa oryzicola: ECHOR); experiment: Test Example 3 water application herbicidal activity (paddy), ECHOR; settings: 63 g a.i./ha, water application under submerged condition at 0.5 leaf stage, visually observed 14th day after application; 0 = untreated control, 100 = complete kill
Procedure, shortened: (§3)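 Submerged application in flooded paddy soil (3–4 cm water); weeds treated at 0.5-leaf stage, transplanted rice 4 d after transplanting. Scored visually as % growth control: weeds at 14 d, rice at 21 d.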

[4] = system: prickly sida (Sida spinosa L.), SIDSP; experiment: Test Example 2 post-emergence (foliage treatment) herbicidal activity, SIDSP; settings: 63 g a.i./ha
Procedure, shortened: (§4)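 A small sprayer delivered the diluted WP or EC formulation (500 L/ha water, 0.1% v/v spreader) over emerged seedlings in upland soil pots. Damage relative to untreated plants was graded visually from 0 to 100% three weeks or so later (days 20-23).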

[5] = system: crabgrass (Digitaria sanguinalis L.): DIGSA; experiment: Test Example 1 pre-emergence herbicidal activity, DIGSA; settings: visually observed 20th to 23rd day after application
Procedure, shortened: as §1

[6] = system: japanese ribbon wapato (Sagittaria pygmaea: SA GPY); experiment: Test Example 3 water application herbicidal activity (paddy), SAGPY; settings: 63 g a.i./ha, water application under submerged condition, tubers planted, visually observed 14th day after application; 0 = untreated control, 100 = complete kill
Procedure, shortened: as §3

[7] = system: prickly sida (Sida spinosa L.): SEDSP; experiment: Test Example 1 pre-emergence herbicidal activity, SIDSP; settings: visually observed 20th to 23rd day after application
Procedure, shortened: as §1

[8] = system: redroot pigweed (Amaranthus retroflexus L.): AMARE; experiment: Test Example 1 pre-emergence herbicidal activity, AMARE; settings: visually observed 20th to 23rd day after application
Procedure, shortened: as §1

[9] = system: rice (Oryza sativa L.: ORYSA); experiment: Test Example 3 water application herbicidal activity (paddy), transplanted rice ORYSA; settings: 63 g a.i./ha, water application 4th day after transplantation of 2 leaf stage rice, visually observed 21st day after application; 0 = untreated control, 100 = complete kill
Procedure, shortened: as §3

[10] = system: green foxtail (Setaria viridis L.), SETVI; experiment: Test Example 2 post-emergence (foliage treatment) herbicidal activity, SETVI; settings: 63 g a.i./ha
Procedure, shortened: as §4

[11] = system: rice (Oryza sativa L.): ORYSA; experiment: Test Example 1 pre-emergence herbicidal activity, ORYSA; settings: visually observed 20th to 23rd day after application
Procedure, shortened: as §1

[12] = system: wheat (Triticum aestivum L.): TRZAX; experiment: Test Example 1 pre-emergence herbicidal activity, TRZAX; settings: visually observed 20th to 23rd day after application
Procedure, shortened: as §1

[13] = system: barnyardgrass (Echinochloa crus-galli L.), ECHCG; experiment: Test Example 2 post-emergence (foliage treatment) herbicidal activity, ECHCG; settings: 63 g a.i./ha
Procedure, shortened: as §2

[14] = system: crabgrass (Digitaria sanguinalis L.), DIGSA; experiment: Test Example 2 post-emergence (foliage treatment) herbicidal activity, DIGSA; settings: 63 g a.i./ha
Procedure, shortened: as §2

[15] = system: corn (Zea mays L.), ZEAMX; experiment: Test Example 2 post-emergence (foliage treatment) herbicidal activity, ZEAMX; settings: 63 g a.i./ha
Procedure, shortened: as §4

[16] = system: redroot pigweed (Amaranthus retroflexus L.), AMARE; experiment: Test Example 2 post-emergence (foliage treatment) herbicidal activity, AMARE; settings: 63 g a.i./ha
Procedure, shortened: as §2

[17] = system: wheat (Triticum aestivum L.), TRZAX; experiment: Test Example 2 post-emergence (foliage treatment) herbicidal activity, TRZAX; settings: 63 g a.i./ha
Procedure, shortened: as §4

[18] = system: soybean (Glycine max Merr.), GLXMA; experiment: Test Example 2 post-emergence (foliage treatment) herbicidal activity, GLXMA; settings: 63 g a.i./ha
Procedure, shortened: as §4

[19] = system: corn (Zea mays L.): ZEAMX; experiment: Test Example 1 pre-emergence herbicidal activity, ZEAMX; settings: visually observed 20th to 23rd day after application
Procedure, shortened: as §1

[20] = system: green foxtail (Setaria viridis L.): SETVI; experiment: Test Example 1 pre-emergence herbicidal activity, SETVI; settings: visually observed 20th to 23rd day after application
Procedure, shortened: as §1

[21] = system: soybean (Glycine max Merr.): GLXMA; experiment: Test Example 1 pre-emergence herbicidal activity, GLXMA; settings: visually observed 20th to 23rd day after application
Procedure, shortened: as §1

[22] = system: velvetleaf (Abutilon theophrasti), ABUTH; experiment: Test Example 2 post-emergence (foliage treatment) herbicidal activity, ABUTH; settings: 63 g a.i./ha
Procedure, shortened: as §4

[23] = system: japanese bulrush (Scirpus juncoides: SCPJO); experiment: Test Example 3 water application herbicidal activity (paddy), SCPJO; settings: 63 g a.i./ha, water application under submerged condition at 0.5 leaf stage, visually observed 14th day after application; 0 = untreated control, 100 = complete kill
Procedure, shortened: as §3

[24] = system: velvetleaf (Abutilon theophrasti): ABUTH; experiment: Test Example 1 pre-emergence herbicidal activity, ABUTH; settings: visually observed 20th to 23rd day after application
Procedure, shortened: as §1

Row | Structure (SMILES) | Pre-emergence Herbicidal Activity ECHCG (growth controlling degree) ([1]; Rate 63 g a.i./ha) [%] | growth controlling degree, ORYSA [2] [%] | growth controlling degrees (%) ECHOR [3] [%] | growth controlling degree, SIDSP [4] [%] | Pre-emergence Herbicidal Activity DIGSP (growth controlling degree) ([5]; Rate 63 g a.i./ha) [%] | growth controlling degrees (%) SAGPY [6] [%] | Pre-emergence Herbicidal Activity SIDSP (growth controlling degree) ([7]; Rate 63 g a.i./ha) [%] | Pre-emergence Herbicidal Activity AMARE (growth controlling degree) ([8]; Rate 63 g a.i./ha) [%] | growth controlling degrees (%) ORYSA [9] [%] | growth controlling degree, SETVI [10] [%] | Pre-emergence Herbicidal Activity ORYSA (growth controlling degree) ([11]; Rate 63 g a.i./ha) [%] | Pre-emergence Herbicidal Activity TRZAX (growth controlling degree) ([12]; Rate 63 g a.i./ha) [%] | growth controlling degree, ECHCO [13] [%] | growth controlling degree, DIGSP [14] [%] | growth controlling degree, ZEAMX [15] [%] | growth controlling degree, AMARE [16] [%] | growth controlling degree, TRZAX [17] [%] | growth controlling degree, GLXMA [18] [%] | growth controlling degree, ABUTH [22] [%] | growth controlling degrees (%) SCPJO [23] [%] | other results
1 | COc1c(Cl)cc(F)c(-c2nn(C)c(OC(F)F)c2Cl)c1NC(=O)OCc1ccccc1Cl [Compound 1-63] | 30 | 60 | 100 | 100 | 40 | 70 | 20 | 100 | 40 | 100 | 0 | 10 | 100 | 90 | 70 | 100 | 40 | 60 | 100 | 70 | Pre-emergence Herbicidal Activity ZEAMX (growth controlling degree) ([19]; Rate 63 g a.i./ha): 0%; Pre-emergence Herbicidal Activity SETVI (growth controlling degree) ([20]; Rate 63 g a.i./ha): 30%; Pre-emergence Herbicidal Activity GLXMA (growth controlling degree) ([21]; Rate 63 g a.i./ha): 0%; Pre-emergence Herbicidal Activity ABUTH (growth controlling degree) ([24]; Rate 63 g a.i./ha): 30%
2 | COc1ccc(OC(=O)N(C(=O)Oc2ccc(OC)cc2)c2c(OC)c(Cl)cc(F)c2-c2nn(C)c(OC(F)F)c2Cl)cc1 [Compound 1-65] | – | 0 | 50 | 0 | – | 0 | – | – | 20 | 0 | – | – | 0 | 0 | 0 | 10 | 0 | 10 | 0 | 0 | Pre-emergence Herbicidal Activity ECHCG (growth controlling degree) ([1]; Rate 125 g a.i./ha): 0%; Pre-emergence Herbicidal Activity DIGSP (growth controlling degree) ([5]; Rate 125 g a.i./ha): 0%; Pre-emergence Herbicidal Activity SIDSP (growth controlling degree) ([7]; Rate 125 g a.i./ha): 10%; Pre-emergence Herbicidal Activity AMARE (growth controlling degree) ([8]; Rate 125 g a.i./ha): 20%; Pre-emergence Herbicidal Activity ORYSA (growth controlling degree) ([11]; Rate 125 g a.i./ha): 0%; Pre-emergence Herbicidal Activity TRZAX (growth controlling degree) ([12]; Rate 125 g a.i./ha): 0%; Pre-emergence Herbicidal Activity ZEAMX (growth controlling degree) ([19]; Rate 125 g a.i./ha): 0%; Pre-emergence Herbicidal Activity SETVI (growth controlling degree) ([20]; Rate 125 g a.i./ha): 10%; Pre-emergence Herbicidal Activity GLXMA (growth controlling degree) ([21]; Rate 125 g a.i./ha): 0%; Pre-emergence Herbicidal Activity ABUTH (growth controlling degree) ([24]; Rate 125 g a.i./ha): 10%
3 | Cn1nc(-c2c(F)cc(Cl)c(OC(F)F)c2NC=O)c(Cl)c1OC(F)F [Compound 1-82] | 100 | 70 | 100 | 100 | 100 | 100 | 100 | 100 | 60 | 100 | 80 | 60 | 100 | 100 | 70 | 100 | 60 | 90 | 100 | 98 | Pre-emergence Herbicidal Activity ZEAMX (growth controlling degree) ([19]; Rate 63 g a.i./ha): 40%; Pre-emergence Herbicidal Activity SETVI (growth controlling degree) ([20]; Rate 63 g a.i./ha): 100%; Pre-emergence Herbicidal Activity GLXMA (growth controlling degree) ([21]; Rate 63 g a.i./ha): 10%; Pre-emergence Herbicidal Activity ABUTH (growth controlling degree) ([24]; Rate 63 g a.i./ha): 100%
4 | Cn1nc(-c2c(F)cc(Cl)c(OC(F)F)c2NC(=O)C(F)(F)F)c(Cl)c1OC(F)F [Compound 1-83] | 90 | 50 | 100 | 100 | 100 | 80 | 100 | 100 | 50 | 100 | 60 | 10 | 100 | 100 | 80 | 100 | 10 | 60 | 100 | 95 | Pre-emergence Herbicidal Activity ZEAMX (growth controlling degree) ([19]; Rate 63 g a.i./ha): 20%; Pre-emergence Herbicidal Activity SETVI (growth controlling degree) ([20]; Rate 63 g a.i./ha): 100%; Pre-emergence Herbicidal Activity GLXMA (growth controlling degree) ([21]; Rate 63 g a.i./ha): 60%; Pre-emergence Herbicidal Activity ABUTH (growth controlling degree) ([24]; Rate 63 g a.i./ha): 80%
5 | C#CCN(C=O)c1c(OC(F)F)c(Cl)cc(F)c1-c1nn(C)c(OC(F)F)c1Cl [Compound 1-85] | 60 | 60 | 100 | 95 | 100 | 70 | 70 | 100 | 70 | 100 | 10 | 0 | 80 | 80 | 40 | 100 | 40 | 60 | 100 | 60 | Pre-emergence Herbicidal Activity ZEAMX (growth controlling degree) ([19]; Rate 63 g a.i./ha): 10%; Pre-emergence Herbicidal Activity SETVI (growth controlling degree) ([20]; Rate 63 g a.i./ha): 70%; Pre-emergence Herbicidal Activity GLXMA (growth controlling degree) ([21]; Rate 63 g a.i./ha): 0%; Pre-emergence Herbicidal Activity ABUTH (growth controlling degree) ([24]; Rate 63 g a.i./ha): 30%

— US20050245399A1, “Pyrazole derivatives as herbicidal compositions containing them” (ISHIHARA SANGYO KAISHA, LTD., priority 2004, published 2005)
